The values below come from patent US11111245B2, “Derivatives of N-cycloalkyl/heterocycloalkyl-4-(imidazo[1,2-a]pyridine)pyrimidin-2-amine as therapeutic agents” (Aucentra Therapeutics Pty Ltd, priority 2017, dated 2021).

The test system of one assay is leukemia cell lines. Nature of the assay: Resazurin cell viability assay on leukemia cell lines (72 h growth inhibition, GI50). It counts as cell-based. As to conditions: Homo sapiens, MV4-11 cells. In short, it runs like this:
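Solid tumour cells: MTT. Leukaemia cells: resazurin. GI50 fitted by non-linear regression.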
A general note: Resazurin is reduced to fluorescent resorufin, in cell work by metabolically active cells.

The target of the next assay is CDK4/D1 (Homo sapiens, UniProt P11802). The assay can be described thus: ADP Glo Kinase assay CDK4/D1. It counts as biochemical. As to conditions: CDK4D1; for remaining activity at 10 µM: compound at 10 μM, read-out: residual activity (%) at 10 μM CDK4D1. The procedure, abridged:
(§1)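 CDK4/D1 and CDK6/D3 were run in […] Tris pH 7.5, 20 mM MgCl2, 0.4 mM DTT, 0.1 mg/ml BSA with RB-CTF substrate; CDK9/T1 used RBER-IRStide. ATP-started reactions ran 40 min at 37° C, with ADP Glo luminescence read-out. IC50 came from 4-parameter fits; Ki from Km (ATP) and IC50.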
For orientation: ADP-Glo turns the ADP formed in a reaction into a luminescent signal.

Assay [1] has as its target T1, CDKs and other kinases (Homo sapiens, UniProt P24941).
T1 construct: other: CDK2A; residual activity (%) at 10 μM CDK2A; compound at 10 μM
Nature of the assay: Radiometric kinase assay (Eurofins Pharma Discovery or Reaction Biology Corporation Kinase Profiler). It counts as biochemical. As to conditions: CDK2A; for Ki: read-out: CDK inhibition, Ki (μM) CDK2A; for remaining activity at 10 µM: compound at 10 μM, read-out: residual activity (%) at 10 μM CDK2A. In short, it runs like this:
(§2)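 Other CDKs and further kinases were profiled externally by radiometric assay. In-house ADP Glo assays covered CDK4/D1 and CDK6/D3 (RB-CTF substrate, pH 7.5 Tris buffer with MgCl2, DTT, BSA) and CDK9/T1 (RBER-IRStide substrate), 40 min at 37° C.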

The target of assay [2] is T2, CDKs and other kinases (Homo sapiens, UniProt P50613).
T2 construct: other: CDK7H; residual activity (%) at 10 μM CDK7H; compound at 10 μM
T2 sequence (P50613 whole entry): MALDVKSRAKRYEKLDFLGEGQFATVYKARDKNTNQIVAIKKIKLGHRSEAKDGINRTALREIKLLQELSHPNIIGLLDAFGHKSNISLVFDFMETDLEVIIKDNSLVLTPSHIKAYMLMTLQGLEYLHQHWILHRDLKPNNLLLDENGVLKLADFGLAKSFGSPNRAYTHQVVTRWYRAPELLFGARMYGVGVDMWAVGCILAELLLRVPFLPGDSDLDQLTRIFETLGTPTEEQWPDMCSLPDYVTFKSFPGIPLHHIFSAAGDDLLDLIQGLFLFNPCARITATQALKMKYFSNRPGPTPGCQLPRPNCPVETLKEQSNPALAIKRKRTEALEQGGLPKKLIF
The assay is described as above. It is filed as biochemical. The settings on record: CDK7H; for Ki: read-out: CDK inhibition, Ki (μM) CDK7H; for remaining activity at 10 µM: compound at 10 μM, read-out: residual activity (%) at 10 μM CDK7H. In short, it runs like this: as §2

The target in assay [3] is T3, CDKs and other kinases (Homo sapiens, UniProt P06493).
T3 construct: other: CDK1B; residual activity (%) at 10 μM CDK1B; compound at 10 μM
T3 sequence (P06493 whole entry): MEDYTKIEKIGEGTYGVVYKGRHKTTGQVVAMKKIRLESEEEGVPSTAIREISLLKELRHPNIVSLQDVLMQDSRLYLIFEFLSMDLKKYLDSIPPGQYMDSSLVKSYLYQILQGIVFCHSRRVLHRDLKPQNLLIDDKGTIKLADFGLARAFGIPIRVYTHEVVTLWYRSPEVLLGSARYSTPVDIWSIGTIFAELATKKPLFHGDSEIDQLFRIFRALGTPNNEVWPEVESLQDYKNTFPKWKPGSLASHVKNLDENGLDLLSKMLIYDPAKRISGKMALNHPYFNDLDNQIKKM
The description is as above. It is filed as biochemical. As to conditions: CDK1B; for Ki: read-out: CDK inhibition, Ki (μM) CDK1B; for remaining activity at 10 µM: compound at 10 μM, read-out: residual activity (%) at 10 μM CDK1B. The procedure, abridged: as §2

A further assay deals with CDK6/D3 (Homo sapiens, UniProt Q00534). Nature of the assay: ADP Glo Kinase assay CDK6/D3. It is filed as biochemical. The settings on record: CDK6D3; for remaining activity at 10 µM: compound at 10 μM, read-out: residual activity (%) at 10 μM CDK6D3. In short, it runs like this:
as §1

In a further assay the target is CDK9/T1 (Homo sapiens, UniProt P50750). The assay can be described thus: ADP Glo Kinase assay CDK9/T1. It is filed as biochemical. The settings on record: CDK9T1; read-out: CDK inhibition, Ki (μM) CDK9T1. In short, it runs like this: as §1
Sequence of CDK9/T1 (P50750 whole entry): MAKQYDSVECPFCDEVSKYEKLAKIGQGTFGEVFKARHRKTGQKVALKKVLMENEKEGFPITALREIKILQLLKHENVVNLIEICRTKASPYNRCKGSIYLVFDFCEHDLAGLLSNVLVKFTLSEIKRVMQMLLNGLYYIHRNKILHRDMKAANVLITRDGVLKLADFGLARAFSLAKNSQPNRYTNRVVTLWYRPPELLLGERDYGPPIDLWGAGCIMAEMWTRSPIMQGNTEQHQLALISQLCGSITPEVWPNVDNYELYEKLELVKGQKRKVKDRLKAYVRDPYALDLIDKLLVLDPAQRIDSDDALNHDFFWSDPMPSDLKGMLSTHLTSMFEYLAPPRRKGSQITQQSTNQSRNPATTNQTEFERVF
Sequence of CDK9/T1 (O60563 whole entry partner): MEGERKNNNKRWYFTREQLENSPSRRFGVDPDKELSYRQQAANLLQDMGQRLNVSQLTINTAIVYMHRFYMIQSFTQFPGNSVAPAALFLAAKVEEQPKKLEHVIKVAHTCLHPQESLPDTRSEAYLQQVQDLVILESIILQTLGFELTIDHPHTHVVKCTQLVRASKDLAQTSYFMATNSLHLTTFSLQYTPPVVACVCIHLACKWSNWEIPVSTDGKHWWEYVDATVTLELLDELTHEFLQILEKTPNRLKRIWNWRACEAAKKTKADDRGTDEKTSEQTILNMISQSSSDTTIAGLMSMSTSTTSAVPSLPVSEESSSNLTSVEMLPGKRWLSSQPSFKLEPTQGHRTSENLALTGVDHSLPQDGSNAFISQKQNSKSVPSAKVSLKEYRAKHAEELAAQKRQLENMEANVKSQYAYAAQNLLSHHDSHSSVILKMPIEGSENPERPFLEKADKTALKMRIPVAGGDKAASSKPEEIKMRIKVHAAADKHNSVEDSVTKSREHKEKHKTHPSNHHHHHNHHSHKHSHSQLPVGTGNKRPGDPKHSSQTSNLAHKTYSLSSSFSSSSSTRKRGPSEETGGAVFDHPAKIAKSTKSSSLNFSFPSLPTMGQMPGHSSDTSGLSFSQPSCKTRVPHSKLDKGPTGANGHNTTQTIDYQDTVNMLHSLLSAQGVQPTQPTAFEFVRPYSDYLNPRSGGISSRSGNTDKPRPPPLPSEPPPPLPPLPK

Sequence of CDK4/D1 (P11802 whole entry): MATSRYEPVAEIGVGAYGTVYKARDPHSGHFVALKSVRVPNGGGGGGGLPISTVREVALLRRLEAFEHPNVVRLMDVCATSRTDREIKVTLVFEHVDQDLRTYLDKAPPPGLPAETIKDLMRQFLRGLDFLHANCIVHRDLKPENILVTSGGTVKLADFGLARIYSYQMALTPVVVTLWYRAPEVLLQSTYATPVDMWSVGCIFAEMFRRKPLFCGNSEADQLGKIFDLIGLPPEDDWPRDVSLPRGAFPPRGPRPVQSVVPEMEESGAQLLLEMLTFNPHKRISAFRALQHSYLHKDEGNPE
Sequence of CDK4/D1 (P24385 whole entry partner): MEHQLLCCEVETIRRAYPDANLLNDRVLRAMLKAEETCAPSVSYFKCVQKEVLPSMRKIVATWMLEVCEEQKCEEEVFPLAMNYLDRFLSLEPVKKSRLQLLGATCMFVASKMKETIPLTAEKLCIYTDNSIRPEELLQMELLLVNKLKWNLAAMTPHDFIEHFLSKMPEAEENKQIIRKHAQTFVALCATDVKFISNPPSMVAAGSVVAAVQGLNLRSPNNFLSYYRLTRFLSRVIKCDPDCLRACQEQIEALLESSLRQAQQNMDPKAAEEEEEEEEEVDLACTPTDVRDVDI
Sequence of CDK6/D3 (Q00534 whole entry): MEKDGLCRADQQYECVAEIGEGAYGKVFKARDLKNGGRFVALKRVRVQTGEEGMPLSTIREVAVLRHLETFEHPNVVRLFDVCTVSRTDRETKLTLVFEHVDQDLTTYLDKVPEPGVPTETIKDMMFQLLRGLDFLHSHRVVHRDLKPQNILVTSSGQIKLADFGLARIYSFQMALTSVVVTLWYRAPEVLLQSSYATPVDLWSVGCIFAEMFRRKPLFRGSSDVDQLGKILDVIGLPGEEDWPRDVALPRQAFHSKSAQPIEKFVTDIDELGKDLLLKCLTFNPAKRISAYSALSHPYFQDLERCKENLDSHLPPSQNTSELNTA
Sequence of CDK6/D3 (P30281 whole entry partner): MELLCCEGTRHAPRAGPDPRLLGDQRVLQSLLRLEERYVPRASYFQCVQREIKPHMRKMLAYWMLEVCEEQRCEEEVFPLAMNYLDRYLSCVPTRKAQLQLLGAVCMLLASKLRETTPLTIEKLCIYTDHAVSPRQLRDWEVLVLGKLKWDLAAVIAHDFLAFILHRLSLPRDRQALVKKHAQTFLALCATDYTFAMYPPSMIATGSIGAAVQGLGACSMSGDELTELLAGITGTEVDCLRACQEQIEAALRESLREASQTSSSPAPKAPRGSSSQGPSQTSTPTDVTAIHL

By GI50 is commonly meant the concentration at which growth is held to half of that of the control. Broadly, the Ki is the equilibrium dissociation constant of an inhibitor or competing ligand from its target. `Cc1ccc(Nc2ccc3ncc(-c4nc(N[C@H]5CC[C@H](N)CC5)ncc4C)n3c2)cn1` [Compound 69, (1r,4r)-N^1-(5-Methyl-4-(6-((6-methylpyridin-3-yl)amino)imidazo[1,2-a]pyridin-3-yl)pyrimidin-2-yl)cyclohexane-1,4-diamine] gave a GI50 in the assay on leukemia cell lines of 0.199 ± 0.02 µM. The remaining activity at 10 µM at CDK4/D1 is 24%; at CDK6/D3, 25%. The Ki is 0.61 µM on CDKs and other kinases [1]; 0.95 µM on CDKs and other kinases [2]; 2.95 µM on CDKs and other kinases [3]; 0.023 µM on CDK9/T1.

For the compound `Cc1cnc(N[C@H]2CC[C@H](N)CC2)nc1-c1cnc2ccc(Nc3cnccn3)cn12` [Compound 70, (1r,4r)-N^1-(5-Methyl-4-(6-(pyrazin-2-ylamino)imidazo [1,2-a]pyridin-3-yl)pyrimidin-2-yl)cyclohexane-1,4-diamine], the GI50 in the assay on leukemia cell lines stood at 0.212 ± 0.104 µM. Besides, the remaining activity at 10 µM was determined as 31% at CDK4/D1 and 70% on CDK6/D3. In addition, the Ki on CDKs and other kinases [1] turned out to be 1.42 µM; on CDKs and other kinases [2], 3.28 µM; at CDKs and other kinases [3] it was 4.32 µM; on CDK9/T1, 0.62 µM.

With `Cc1cnc(N[C@H]2CC[C@H](N)CC2)nc1-c1cnc2ccc(Nc3cccnn3)cn12` [Compound 71, (1r,4r)-N^1-(5-Methyl-4-(6-(pyridazin-3-ylamino)imidazo [1,2-a]pyridin-3-yl)pyrimidin-2-yl)cyclohexane-1,4-diamine], it took 0.383 ± 0.119 µM to inhibit growth in the assay on leukemia cell lines by half (GI50). The remaining activity at 10 µM at CDK4/D1 stood at 35%; on CDK6/D3 it was 66%. For the same compound, the Ki on CDKs and other kinases [1] was determined as 2.66 µM; at CDKs and other kinases [2], 5.19 µM; at CDKs and other kinases [3], 6.05 µM; on CDK9/T1, 0.203 µM.

In the assay with leukemia cell lines, `Cc1cnc(N[C@H]2CC[C@H](N)CC2)nc1-c1cnc2ccc(NC(=O)c3ccc(F)cc3)cn12` [Compound 72, N-(3-(2-(((1r,4r)-4-Aminocyclohexyl)amino)-5-methylpyrimidin-4-yl)imidazo[1,2-a]pyridin-6-yl)-4-fluorobenzamide] came in with a 50% growth inhibitory concentration (GI50) of 1.46 ± 0.476 µM. Moreover, the remaining activity at 10 µM came out at 77% at CDK4/D1; 52% on CDKs and other kinases [1]; 57% on CDKs and other kinases [2]; 69% at CDKs and other kinases [3]; 85% at CDK6/D3. For the same compound, the Ki at CDK9/T1 came to 0.194 µM.

In the assay on leukemia cell lines, `Cc1cnc(N[C@H]2CC[C@H](N)CC2)nc1-c1cnc2ccc(NC(=O)Cc3ccccc3)cn12` [Compound 73, N-(3-(2-(((1r,4r)-4-Aminocyclohexyl)amino)-5-methylpyrimidin-4-yl)imidazo[1,2-a]pyridin-6-yl)-2-phenylacetamide] gave a GI50 of 0.752 ± 0.055 µM. Moreover, the remaining activity at 10 µM on CDK4/D1 was determined as 53%; on CDKs and other kinases [1] it was 62%; at CDKs and other kinases [2] it was 63%; at CDKs and other kinases [3], 75%; on CDK6/D3, 49%. Also, the Ki at CDK9/T1 is 0.469 µM.

The compound `Cc1cnc(N[C@H]2CC[C@H](N)CC2)nc1-c1cnc2ccc(Oc3cccnc3)cn12` [Compound 74, (1r,4r)-N^1-(5-Methyl-4-(6-(pyridin-3-yloxy)imidazo[1,2-a]pyridin-3-yl)pyrimidin-2-yl)cyclohexane-1,4-diamine] showed a GI50 in the assay with leukemia cell lines of 0.349 ± 0.086 µM. The remaining activity at 10 µM at CDK4/D1 is 41%; on CDKs and other kinases [1], 11%; at CDKs and other kinases [2] it was 50%; at CDKs and other kinases [3] it was 39%; on CDK6/D3, 46%. Moreover, the Ki at CDK9/T1 worked out at 0.02 µM.

For `N[C@H]1CC[C@H](Nc2ncc(Cl)c(-c3cnc4ccc(-c5ccccc5)cn34)n2)CC1` [Compound 79, (1r,4r)-N^1-(5-Chloro-4-(6-phenylimidazo[1,2-a]pyridin-3-yl)pyrimidin-2-yl)cyclohexane-1,4-diamine], halving of growth in the assay with leukemia cell lines (GI50) required 0.008 ± 0.001 µM. Also, the remaining activity at 10 µM on CDK4/D1 stood at 13%; on CDK6/D3, 80%. Moreover, the Ki came to 0.071 µM on CDKs and other kinases [1]; 0.079 µM on CDKs and other kinases [2]; 0.27 µM on CDKs and other kinases [3]; 0.004 µM on CDK9/T1.

`COc1ccc(-c2ccc3ncc(-c4nc(N[C@H]5CC[C@H](N)CC5)ncc4Cl)n3c2)cn1` [Compound 81, (1r,4r)-N^1-(5-Chloro-4-(6-(6-methoxypyridin-3-yl)imidazo[1,2-a]pyridin-3-yl)pyrimidin-2-yl)cyclohexane-1,4-diamine]: the GI50 in the assay on leukemia cell lines was determined as 0.025 ± 0.011 µM. Besides, the Ki is 1.58 µM at CDK4/D1 (read-out: CDK inhibition, Ki (μM) CDK4D1); 0.51 µM on CDKs and other kinases [1]; 0.21 µM on CDKs and other kinases [2]; 2.01 µM on CDKs and other kinases [3]; 1.01 µM on CDK6/D3 (read-out: CDK inhibition, Ki (μM) CDK6D3); 0.008 µM on CDK9/T1.

With `COc1ccc(-c2ccc3ncc(-c4nc(N[C@H]5CC[C@H](N)CC5)ncc4Cl)n3c2)cc1` [Compound 82, (1r,4r)-N^1-(5-Chloro-4-(6-(4-methoxyphenyl)imidazo [1,2-a]pyridin-3-yl)pyrimidin-2-yl)cyclohexane-1,4-diamine], in the assay with leukemia cell lines, the GI50 was 0.054 ± 0.015 µM. Further, the remaining activity at 10 µM at CDK4/D1 was determined as 20%; on CDK6/D3, 99%. In addition, the Ki was determined as 0.22 µM on CDKs and other kinases [1]; 0.15 µM at CDKs and other kinases [2]; 0.82 µM on CDKs and other kinases [3]; 0.018 µM on CDK9/T1.

For `Cc1noc(C)c1-c1ccc2ncc(-c3nc(N[C@H]4CC[C@H](N)CC4)ncc3Cl)n2c1` [Compound 83, (1r,4r)-N^1-(5-Chloro-4-(6-(3,5-dimethylisoxazol-4-yl)imidazo[1,2-a]pyridin-3-yl)pyrimidin-2-yl)cyclohexane-1,4-diamine], in the assay on leukemia cell lines, the GI50 was 0.052 ± 0.011 µM. In addition, the remaining activity at 10 µM on CDK4/D1 stood at 27%; at CDK6/D3, 80%. For the same compound, the Ki is 0.91 µM at CDKs and other kinases [1]; 0.58 µM at CDKs and other kinases [2]; 2.56 µM on CDKs and other kinases [3]; 0.065 µM on CDK9/T1.

In the assay on leukemia cell lines, `N[C@H]1CC[C@H](Nc2ncc(Cl)c(-c3cnc4ccc(-c5ccc(N6CCNCC6)nc5)cn34)n2)CC1` [Compound 84, (1r,4r)-N^1-(5-Chloro-4-(6-(6-(piperazin-1-yl)pyridin-3-yl)imidazo[1,2-a]pyridin-3-yl)pyrimidin-2-yl)cyclohexane-1,4-diamine] returned a GI50 of 0.035 ± 0.006 µM. The remaining activity at 10 µM at CDK4/D1 stood at 9%; at CDKs and other kinases [1], 39%; on CDKs and other kinases [2] it was 10%; at CDKs and other kinases [3], 51%; on CDK6/D3, 12%. Moreover, the Ki on CDK9/T1 was 0.033 µM.

Consider `N[C@H]1CC[C@H](Nc2ncc(Cl)c(-c3cnc4c(-c5ccccc5)cc(C(F)(F)F)cn34)n2)CC1` [Compound 85, (1r,4r)-N^1-(5-Chloro-4-(8-phenyl-6-(trifluoromethyl)imidazo[1,2-a]pyridin-3-yl)pyrimidin-2-yl)cyclohexane-1,4-diamine], for which the GI50 in the assay on leukemia cell lines came out at 1.32 ± 0.549 µM. Also, the remaining activity at 10 µM is 75% at CDK4/D1 and 43% at CDK6/D3. Moreover, the Ki amounted to 0.77 µM on CDKs and other kinases [1]; 0.048 µM at CDKs and other kinases [2]; 7.44 µM at CDKs and other kinases [3]; 0.13 µM at CDK9/T1.

As to `N[C@H]1CC[C@H](Nc2ncc(Cl)c(-c3cnc4c(-c5cccnc5)cc(C(F)(F)F)cn34)n2)CC1` [Compound 86, (1r,4r)-N^1-(5-Chloro-4-(8-(pyridin-3-yl)-6-(trifluoromethyl)imidazo[1,2-a]pyridin-3-yl)pyrimidin-2-yl)cyclohexane-1,4-diamine], in the assay on leukemia cell lines, the GI50 was 0.086 ± 0.005 µM. Further, the figures for the remaining activity at 10 µM at CDK4/D1 and on CDK6/D3 were 25% and 47%, respectively. For the same compound, the Ki at CDKs and other kinases [1] is 0.25 µM; on CDKs and other kinases [2], 0.044 µM; on CDKs and other kinases [3] it was 2.64 µM; at CDK9/T1, 0.216 µM.

On to `N[C@H]1CC[C@H](Nc2ncc(Cl)c(-c3cnc4ccc(NC(=O)c5ccccc5)cn34)n2)CC1` [Compound 87, N-(3-(2-(((1r,4r)-4-Aminocyclohexyl)amino)-5-chloropyrimidin-4-yl)imidazo[1,2-a]pyridin-6-yl) benzamide], for which, in the assay with leukemia cell lines, it took 0.135 ± 0.057 µM to inhibit growth by half (GI50). Also, the remaining activity at 10 µM on CDK4/D1 turned out to be 73%; at CDKs and other kinases [1], 19%; at CDKs and other kinases [2], 14%; at CDKs and other kinases [3] it was 31%; on CDK6/D3 it was 39%. In addition, the Ki at CDK9/T1 worked out at 0.073 µM.
